Measured values: publication PMC11785709, “Angelica gigas Nakai (Korean Dang-gui) Root Alcoholic Extracts in Health Promotion and Disease Therapy – active Phytochemicals and In Vivo Molecular Targets” (Pharmaceutical Research, 2025)
Values joined by “and” are separate entries in the source; they are usually repeats but may differ in a detail not shown here. Equal values may be shown once.

Legend:
[1] = tested on: rat hypothalamic primary neuronal cells; set-up: method as in PMID 28066138; settings: cited from earlier work
GDH = tested on: GDH; set-up: method as in PMID 36455296; settings: read-out: GDH inhibition IC50; cited from earlier work
[2] = tested on: adipose stem cells (ASCs); set-up: method as in PMID 31861646; settings: cited from earlier work
[3] = tested on: methicillin-resistant Staphylococcus aureus (MRSA) sepsis; set-up: method as in PMID 34681611; settings: ip every other day 0.4, 2 and 10 mg/kg pre-treatment; cited from earlier work
[4] = tested on: pentobarbital-induced sleeping behaviors; set-up: method as in PMID 28066138; settings: cited from earlier work
human MAO-A = tested on: human MAO-A; set-up: method as in PMID 28109809; settings: cited from earlier work; for IC50: read-out: MAO-A inhibition IC50
sleep architectures = tested on: sleep architectures; set-up: method as in PMID 28066138; settings: DA 50 mg/kg, po; cited from earlier work
CLP microbial exposure = settings: ip twice at 2 h and 4 h after CLP; cited from earlier work
[5] = cited from earlier work
MELK = molecular target: T1, MELK (Homo sapiens, UniProt Q14680); experiment: Reaction Biology kinase activity inhibition; assay type: biochemical; settings: initial screening
T1 construct: purchased Reaction Biology
Text: (§1) The second screening was the Reaction Biology® (Malvern, PA) kinase activity inhibition tests, which screened for more than 600 protein kinases and lipid kinases, using miniaturized radioisotope-based assay platform with γ-^33P-ATP, followed by confirmation with IC50 kinase profiling service with 5 concentrations of test compound (i.e., DOH and DA) with curve fitting.

CK2a = molecular target: T2, CK2a (Homo sapiens, UniProt P68400); experiment: Reaction Biology kinase activity inhibition; assay type: biochemical; settings: initial screening
T2 construct: purchased Reaction Biology
Text: as §1

ALK-TFG = experiment: Reaction Biology kinase activity inhibition; assay type: biochemical; settings: initial screening
Text: as §1

Aurora B = molecular target: T3, Aurora B (Homo sapiens, UniProt Q96GD4); experiment: Reaction Biology kinase activity inhibition; assay type: biochemical; settings: initial screening
T3 construct: purchased Reaction Biology
Text: as §1

[6] = set-up: method as in PMID 27080944, PMID 23364885, PMID 29121805; settings: oral gavage dosing of AGN or D/DA; cited from earlier work
CDK9 = CDK9 (Homo sapiens, UniProt P50750); experiment: KINOMEscan competition binding; set-up: purchased Eurofins DiscoverX (KINOMEscan)
Procedure: (§2) Two distinct platforms were used for initial screening with 50 µM DOH vs. DMSO vehicle. The first was the Eurofins DiscoverX KINOMEscan® (Freemont, CA USA) profiling platform, which employed a proprietary active site-directed competition binding assay to quantitatively measure interactions between a test compound (i.e., DOH) and 468 human protein kinases and disease relevant mutant variants either directly (sterically) or indirectly (allosterically) to prevent a kinase binding to its immobilized substrate (ligand). The top 8 hits were subjected to secondary screening verification by DOH concentration-titration for dissociation constant (Kd). For ROCK1 and ROCK2, DA was chosen for Kd titration as well, because it is ~ 10 × higher than D in peripheral circulation due to its resistance to hydrolysis by carboxyesterase-2 (Fig. 1C).

YSK4 (MAP3K19) = molecular target: T4, YSK4 (MAP3K19) (Homo sapiens, UniProt Q56UN5); experiment: KINOMEscan competition binding; settings: initial screening, DOH 50 µM; read-out: Substrate bound % Control
T4 construct: purchased Eurofins DiscoverX (KINOMEscan)
Procedure: as §2

GRK4 = molecular target: T5, GRK4 (Homo sapiens, UniProt P32298); experiment: KINOMEscan competition binding; settings: initial screening, DOH 50 µM; read-out: Substrate bound % Control
T5 construct: purchased Eurofins DiscoverX (KINOMEscan)
Procedure: as §2

RIOK1 = molecular target: T6, RIOK1 (Homo sapiens, UniProt Q9BRS2); experiment: KINOMEscan competition binding; settings: initial screening, DOH 50 µM; read-out: Substrate bound % Control
T6 construct: purchased Eurofins DiscoverX (KINOMEscan)
Procedure: as §2

CDC2L1 (CDK11B) = molecular target: T7, CDC2L1 (CDK11B) (Homo sapiens, UniProt P21127); experiment: KINOMEscan competition binding
T7 construct: purchased Eurofins DiscoverX (KINOMEscan)
Procedure: as §2

SRPK3 = molecular target: T8, SRPK3 (Homo sapiens, UniProt Q9UPE1); experiment: KINOMEscan competition binding; settings: initial screening, DOH 50 µM; read-out: Substrate bound % Control
T8 construct: purchased Eurofins DiscoverX (KINOMEscan)
Procedure: as §2

BIKE (BMP2K) = molecular target: T9, BIKE (BMP2K) (Homo sapiens, UniProt Q9NSY1); experiment: KINOMEscan competition binding; settings: initial screening, DOH 50 µM; read-out: Substrate bound % Control
T9 construct: purchased Eurofins DiscoverX (KINOMEscan)
Procedure: as §2

ERK4 (MAPK4) = molecular target: T10, ERK4 (MAPK4) (Homo sapiens, UniProt P31152); experiment: KINOMEscan competition binding
T10 construct: purchased Eurofins DiscoverX (KINOMEscan)
Procedure: as §2

[7] = molecular target: T11, JAK2(JH1domain-catalytic) (Homo sapiens, UniProt O60674); experiment: KINOMEscan competition binding; settings: initial screening, DOH 50 µM; read-out: Substrate bound % Control
T11 construct: JAK2(JH1domain-catalytic); purchased Eurofins DiscoverX (KINOMEscan)
Procedure: as §2

PIK3CG = molecular target: T12, PIK3CG (Homo sapiens, UniProt P48736); experiment: KINOMEscan competition binding; settings: initial screening, DOH 50 µM; read-out: Substrate bound % Control
T12 construct: purchased Eurofins DiscoverX (KINOMEscan)
Procedure: as §2

PIK3C2G = molecular target: T13, PIK3C2G (Homo sapiens, UniProt O75747); experiment: KINOMEscan competition binding; settings: initial screening, DOH 50 µM; read-out: Substrate bound % Control
T13 construct: purchased Eurofins DiscoverX (KINOMEscan)
Procedure: as §2

PIP5K1A = molecular target: T14, PIP5K1A (Homo sapiens, UniProt Q99755); experiment: KINOMEscan competition binding; settings: initial screening, DOH 50 µM; read-out: Substrate bound % Control
T14 construct: purchased Eurofins DiscoverX (KINOMEscan)
Procedure: as §2

LKB1 (STK11) = molecular target: T15, LKB1 (STK11) (Homo sapiens, UniProt Q15831); experiment: KINOMEscan competition binding
T15 construct: purchased Eurofins DiscoverX (KINOMEscan)
Procedure: as §2

DYRK1B = molecular target: T16, DYRK1B (Homo sapiens, UniProt Q9Y463); experiment: KINOMEscan competition binding; settings: initial screening, DOH 50 µM; read-out: Substrate bound % Control
T16 construct: purchased Eurofins DiscoverX (KINOMEscan)
Procedure: as §2

[8] = molecular target: T17, JAK3(JH1domain-catalytic) (Homo sapiens, UniProt P52333); experiment: KINOMEscan competition binding; settings: initial screening, DOH 50 µM; read-out: Substrate bound % Control
T17 construct: JAK3(JH1domain-catalytic); purchased Eurofins DiscoverX (KINOMEscan)
Procedure: as §2

[9] = DOH (50 µM), Data 1 and Data 2, read-out: % Enzyme Activity (relative to DMSO controls)
[10] = read-out: Substrate bound % Control
[11] = validation Kd titration, 0.003 to 50 µM

T1 sequence (Q14680 whole entry): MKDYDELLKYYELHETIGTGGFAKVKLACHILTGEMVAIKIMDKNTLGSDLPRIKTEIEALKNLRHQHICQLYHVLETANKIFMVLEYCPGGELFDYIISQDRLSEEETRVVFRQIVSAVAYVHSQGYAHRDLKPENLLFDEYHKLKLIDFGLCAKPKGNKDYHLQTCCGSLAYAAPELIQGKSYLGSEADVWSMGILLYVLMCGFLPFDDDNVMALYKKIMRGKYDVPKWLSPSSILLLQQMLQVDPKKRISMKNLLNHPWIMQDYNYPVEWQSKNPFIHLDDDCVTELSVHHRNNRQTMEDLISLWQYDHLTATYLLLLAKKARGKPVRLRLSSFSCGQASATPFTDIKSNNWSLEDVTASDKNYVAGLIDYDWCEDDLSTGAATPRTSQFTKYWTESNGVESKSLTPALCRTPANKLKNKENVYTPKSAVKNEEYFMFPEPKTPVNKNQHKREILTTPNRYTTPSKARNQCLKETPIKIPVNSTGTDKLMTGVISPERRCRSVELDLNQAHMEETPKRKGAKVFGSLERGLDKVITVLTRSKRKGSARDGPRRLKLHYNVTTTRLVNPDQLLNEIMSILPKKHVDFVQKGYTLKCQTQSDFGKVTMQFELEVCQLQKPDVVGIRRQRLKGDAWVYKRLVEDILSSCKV
T2 sequence (P68400 whole entry): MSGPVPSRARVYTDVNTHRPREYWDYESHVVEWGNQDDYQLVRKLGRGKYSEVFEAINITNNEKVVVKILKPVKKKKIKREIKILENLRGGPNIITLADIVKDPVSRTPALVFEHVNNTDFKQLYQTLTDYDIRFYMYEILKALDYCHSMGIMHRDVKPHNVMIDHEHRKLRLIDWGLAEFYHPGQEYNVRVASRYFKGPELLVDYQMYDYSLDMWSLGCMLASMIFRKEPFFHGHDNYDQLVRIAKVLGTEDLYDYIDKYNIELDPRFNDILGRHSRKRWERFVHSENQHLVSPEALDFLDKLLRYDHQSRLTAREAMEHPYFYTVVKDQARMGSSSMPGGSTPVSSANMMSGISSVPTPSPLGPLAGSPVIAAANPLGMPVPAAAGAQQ
T3 sequence (Q96GD4 whole entry): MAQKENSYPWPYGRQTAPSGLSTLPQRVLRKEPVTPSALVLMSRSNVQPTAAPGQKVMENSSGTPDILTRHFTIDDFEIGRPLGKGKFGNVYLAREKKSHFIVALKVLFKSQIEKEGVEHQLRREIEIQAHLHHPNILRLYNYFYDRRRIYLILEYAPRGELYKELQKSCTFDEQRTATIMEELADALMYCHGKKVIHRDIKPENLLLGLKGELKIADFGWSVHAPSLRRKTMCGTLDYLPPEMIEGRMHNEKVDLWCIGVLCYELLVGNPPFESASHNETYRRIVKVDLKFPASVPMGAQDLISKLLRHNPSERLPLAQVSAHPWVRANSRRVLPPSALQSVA
T7 sequence (P21127 whole entry): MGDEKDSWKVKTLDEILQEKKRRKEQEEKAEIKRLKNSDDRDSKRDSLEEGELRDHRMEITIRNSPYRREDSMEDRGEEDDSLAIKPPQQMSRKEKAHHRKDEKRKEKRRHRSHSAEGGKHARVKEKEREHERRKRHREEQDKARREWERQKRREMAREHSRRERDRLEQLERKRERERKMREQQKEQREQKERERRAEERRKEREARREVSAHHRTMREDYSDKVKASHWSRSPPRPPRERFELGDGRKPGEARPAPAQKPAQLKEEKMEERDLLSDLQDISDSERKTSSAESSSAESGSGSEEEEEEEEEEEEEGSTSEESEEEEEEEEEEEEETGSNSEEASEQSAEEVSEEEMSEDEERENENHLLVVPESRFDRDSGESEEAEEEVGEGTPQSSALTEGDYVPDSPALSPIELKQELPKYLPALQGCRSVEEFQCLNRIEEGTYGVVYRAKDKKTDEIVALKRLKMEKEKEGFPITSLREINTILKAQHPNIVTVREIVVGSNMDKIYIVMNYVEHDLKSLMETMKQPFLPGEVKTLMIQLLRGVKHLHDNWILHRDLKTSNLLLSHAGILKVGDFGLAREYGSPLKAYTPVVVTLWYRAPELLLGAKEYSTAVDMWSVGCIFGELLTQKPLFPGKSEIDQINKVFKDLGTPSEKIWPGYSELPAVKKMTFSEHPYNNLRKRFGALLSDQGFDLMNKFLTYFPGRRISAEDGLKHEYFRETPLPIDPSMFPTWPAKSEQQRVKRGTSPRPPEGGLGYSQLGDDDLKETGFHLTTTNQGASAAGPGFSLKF
T10 sequence (P31152 whole entry): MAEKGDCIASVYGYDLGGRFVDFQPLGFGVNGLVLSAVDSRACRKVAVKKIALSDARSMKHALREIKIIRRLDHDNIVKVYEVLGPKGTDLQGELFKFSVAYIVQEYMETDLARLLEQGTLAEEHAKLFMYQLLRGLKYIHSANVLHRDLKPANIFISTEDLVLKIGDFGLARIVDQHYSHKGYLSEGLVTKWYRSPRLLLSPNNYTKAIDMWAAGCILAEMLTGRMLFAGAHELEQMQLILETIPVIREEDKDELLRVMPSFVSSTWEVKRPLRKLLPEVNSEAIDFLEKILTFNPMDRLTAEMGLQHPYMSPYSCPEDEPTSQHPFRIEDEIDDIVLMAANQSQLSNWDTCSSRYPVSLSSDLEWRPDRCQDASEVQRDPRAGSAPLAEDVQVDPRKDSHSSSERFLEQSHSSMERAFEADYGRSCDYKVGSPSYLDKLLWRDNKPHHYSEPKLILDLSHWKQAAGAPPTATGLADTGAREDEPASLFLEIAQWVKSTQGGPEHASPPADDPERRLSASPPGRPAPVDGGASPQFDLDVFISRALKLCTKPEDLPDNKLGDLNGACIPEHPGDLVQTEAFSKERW
CDK9, sequence (P50750 whole entry): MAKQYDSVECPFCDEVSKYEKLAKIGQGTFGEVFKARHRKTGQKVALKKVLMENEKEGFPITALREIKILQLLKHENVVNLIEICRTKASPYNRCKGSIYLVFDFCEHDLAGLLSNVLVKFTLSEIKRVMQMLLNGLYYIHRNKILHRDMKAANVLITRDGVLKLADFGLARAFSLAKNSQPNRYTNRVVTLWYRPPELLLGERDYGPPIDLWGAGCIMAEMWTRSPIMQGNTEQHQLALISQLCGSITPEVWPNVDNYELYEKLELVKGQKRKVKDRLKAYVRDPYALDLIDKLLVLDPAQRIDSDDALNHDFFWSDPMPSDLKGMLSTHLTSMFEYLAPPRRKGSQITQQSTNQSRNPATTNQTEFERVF
T15 sequence (Q15831 whole entry): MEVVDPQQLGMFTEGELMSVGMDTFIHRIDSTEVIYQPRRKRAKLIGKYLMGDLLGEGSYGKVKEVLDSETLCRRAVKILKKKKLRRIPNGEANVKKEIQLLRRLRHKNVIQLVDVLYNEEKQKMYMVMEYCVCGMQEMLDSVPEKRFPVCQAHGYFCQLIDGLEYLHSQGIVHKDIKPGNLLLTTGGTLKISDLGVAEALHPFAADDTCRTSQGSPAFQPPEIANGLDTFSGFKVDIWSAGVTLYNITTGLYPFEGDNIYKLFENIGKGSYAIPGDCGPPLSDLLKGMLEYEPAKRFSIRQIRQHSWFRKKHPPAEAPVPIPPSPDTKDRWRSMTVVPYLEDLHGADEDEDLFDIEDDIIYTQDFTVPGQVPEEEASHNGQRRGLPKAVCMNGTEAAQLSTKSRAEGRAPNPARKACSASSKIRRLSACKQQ
T9 sequence (Q9NSY1 whole entry): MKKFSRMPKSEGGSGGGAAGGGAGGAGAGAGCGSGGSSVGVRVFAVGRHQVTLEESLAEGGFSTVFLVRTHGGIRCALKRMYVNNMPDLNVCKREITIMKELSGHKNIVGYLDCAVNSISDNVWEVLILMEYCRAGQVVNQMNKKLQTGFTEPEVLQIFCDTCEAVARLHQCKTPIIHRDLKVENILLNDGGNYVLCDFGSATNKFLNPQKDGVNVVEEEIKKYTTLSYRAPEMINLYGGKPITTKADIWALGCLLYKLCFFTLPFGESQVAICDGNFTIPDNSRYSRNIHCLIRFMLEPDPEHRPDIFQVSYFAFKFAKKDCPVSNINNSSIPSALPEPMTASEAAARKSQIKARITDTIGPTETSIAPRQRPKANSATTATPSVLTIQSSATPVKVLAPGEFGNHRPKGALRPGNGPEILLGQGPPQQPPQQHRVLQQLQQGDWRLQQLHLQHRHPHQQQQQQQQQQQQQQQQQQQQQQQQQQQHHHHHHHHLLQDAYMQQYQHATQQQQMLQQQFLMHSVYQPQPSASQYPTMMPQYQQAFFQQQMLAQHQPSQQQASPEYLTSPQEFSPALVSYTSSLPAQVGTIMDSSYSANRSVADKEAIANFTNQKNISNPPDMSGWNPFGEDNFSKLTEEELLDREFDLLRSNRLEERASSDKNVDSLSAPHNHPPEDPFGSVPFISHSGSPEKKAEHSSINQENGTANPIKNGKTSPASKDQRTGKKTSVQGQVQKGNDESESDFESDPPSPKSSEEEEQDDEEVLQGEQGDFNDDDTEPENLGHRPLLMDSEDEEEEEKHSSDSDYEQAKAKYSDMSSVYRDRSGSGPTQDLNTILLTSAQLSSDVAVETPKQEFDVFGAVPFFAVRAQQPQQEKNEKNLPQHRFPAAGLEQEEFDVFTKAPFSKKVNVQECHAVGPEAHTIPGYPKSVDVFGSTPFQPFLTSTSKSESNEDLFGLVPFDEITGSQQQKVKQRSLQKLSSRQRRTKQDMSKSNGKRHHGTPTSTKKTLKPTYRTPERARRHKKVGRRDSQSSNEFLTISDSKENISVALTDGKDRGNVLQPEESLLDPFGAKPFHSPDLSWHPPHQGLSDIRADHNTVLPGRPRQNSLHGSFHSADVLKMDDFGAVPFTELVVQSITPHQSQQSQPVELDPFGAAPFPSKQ
T11 sequence (O60674 849-1124 limits assumed): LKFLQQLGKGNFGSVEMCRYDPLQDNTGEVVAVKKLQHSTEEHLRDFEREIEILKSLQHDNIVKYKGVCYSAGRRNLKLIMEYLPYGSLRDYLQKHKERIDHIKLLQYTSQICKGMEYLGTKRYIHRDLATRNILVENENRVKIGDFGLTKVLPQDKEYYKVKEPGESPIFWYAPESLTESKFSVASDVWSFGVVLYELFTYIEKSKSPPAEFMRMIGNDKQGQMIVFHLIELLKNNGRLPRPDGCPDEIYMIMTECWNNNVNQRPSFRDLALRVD

## C/C=C(/C)C(=O)O[C@H]1Cc2cc3ccc(=O)oc3cc2OC1(C)C [DA, decursinol angelate]
[1]; DA 0.001, 0.01 and 0.1 µg/ml ≈ 0.003, 0.03 and 0.3 µM
  intracellular Cl- influx level: increased
[1]
  protein expression of GAD65/67 and GABAA receptor subtypes: increased the protein expression
GDH
  IC50: ~1.4 µM and 1.4 µM
[2]
  adipocyte differentiation: significantly inhibited adipocyte differentiation
[3]
  mouse mortality and bacteremia: dose-dependent decrease of mouse mortality
[4]; dose-dependent
  sleeping time by pentobarbital (42 mg/kg): prolonged sleeping time
[4]; oral DA 10, 25 and 50 mg/kg
  spontaneous locomotor activity: markedly suppressed spontaneous locomotor activity
Human MAO-A
  IC50: 12.8 µM
Sleep architectures
  total sleep time (EEG): increased total sleep time

## CC1(C)Oc2cc3oc(=O)ccc3cc2C[C@@H]1O [DOH, decursinol]
CLP microbial exposure
  dose giving plateau of therapeutic benefit: ≥ 10 mg/kg
[5]; conversion of D and DA to DOH
  AUCDOH/AUCtotal: 98.7%
[5]; read-out: mean peak concentration Cmax, 10 men and 10 women, 800 mg INM176 AGN oral
  Cmax: 2480 nM
Human MAO-A; at 10 μM
  MAO-A initial screen: failed the initial screen
Human MAO-A
  IC50: > 10 µM
MELK; DOH 50 µM
  inhibition at 50 µM: 35.2%
MELK; DOH (50 µM), Data 1 and Data 2
  % Enzyme Activity (relative to DMSO controls): 64.6%
MELK; [9]
  remaining activity at 50 µM: 65%
CK2a; DOH 50 µM
  inhibition at 50 µM: 33%
CK2a; DOH (50 µM), Data 1 and Data 2
  % Enzyme Activity (relative to DMSO controls): 66.2%
CK2a; [9]
  remaining activity at 50 µM: 67.8%
ALK-TFG; DOH 50 µM
  DOH % Inhibition: 27.9%
ALK-TFG; DOH (50 µM), Data 1 and Data 2
  % Enzyme Activity (relative to DMSO controls): 75.7% and 68.5%
Aurora B; DOH 50 µM
  inhibition at 50 µM: 36.2%
Aurora B; DOH (50 µM), Data 1 and Data 2
  % Enzyme Activity (relative to DMSO controls): 63.7%
Aurora B; [9]
  remaining activity at 50 µM: 64%
[6]
  DOH level achievable in the blood: double digit micromolar
CDK9; [10]
  kinase bound, % of control at 50 µM: 12%
CDK9; [11]
  Kd: > 50 µM
YSK4 (MAP3K19)
  remaining binding at 50 µM: 34%
GRK4
  remaining binding at 50 µM: 47%
RIOK1
  remaining binding at 50 µM: 50%
CDC2L1 (CDK11B); [10]
  remaining binding at 50 µM: 19%
CDC2L1 (CDK11B); [11]
  Kd: > 50 µM
SRPK3
  remaining binding at 50 µM: 45%
BIKE (BMP2K)
  remaining binding at 50 µM: 45%
ERK4 (MAPK4); [10]
  remaining binding at 50 µM: 3.3%
ERK4 (MAPK4); [11]
  Kd: > 50 µM
[7]
  remaining binding at 50 µM: 49%
PIK3CG
  remaining binding at 50 µM: 46%
PIK3C2G
  remaining binding at 50 µM: 32%
PIP5K1A
  remaining binding at 50 µM: 47%
LKB1 (STK11); [10]
  remaining binding at 50 µM: 7.6%
LKB1 (STK11); [11]
  Kd: > 50 µM
DYRK1B
  remaining binding at 50 µM: 28%
[8]
  remaining binding at 50 µM: 45%
